# In patent US7341752B2, “Antibacterial treatment and composition” (Academia Sinica, priority 2005, dated 2008):
# Test system: pathogenic Listeria bacteria
# Assay: Prevention of Listeria infection in mice (centaurein given before infection), cumulative survival
# Type: in vivo, C57BL/6J mice
# Conditions: 20 μg per capita intraperitoneally 24 h before 1-2×10^6 Listeria i.p.; ten days after Listeria injection
# Protocol: Six-to-eight week-old C57BL/6J mice were injected intraperitoneally with centaurein at a dose ranging from 0-20 μg per capita. After twenty four hours, the same mice were injected with pathogenic Listeria bacteria. A dose of 1-2×10^6 bacteria were introduced intraperitoneally (in a total volume of 0.2 ml) into each mouse. The cumulative survival rates of the mice were then determined. […] In contrast, only 10% of the mice that were injected with Listeria and not treated with centaurein survived. Thus, centaurein protected the mice from a Listerial infection.
structure (smiles),measurement,value
COc1ccc(-c2oc3cc(O[C@@H]4O[C@H](CO)[C@@H](O)[C@H](O)[C@H]4O)c(OC)c(O)c3c(=O)c2OC)cc1O [centaurein],cumulative survival of mice,all of the mice
